Data taken from ChEMBL document CHEMBL3991601, “The target landscape of clinical kinase drugs” (Science, 2017).
Calls of active or inactive are those of the source. Rule as the data show it, for most assays here: actives have a measured Kd and inactives only a lower limit.

Assays:
[1] = target: Macrophage-stimulating protein receptor (Homo sapiens, UniProt Q04912)
[2] = target: Casein kinase I isoform alpha (Homo sapiens, UniProt P48729)
[3] = target: cAMP-dependent protein kinase catalytic subunit alpha (Homo sapiens, UniProt P17612)
[4] = target: Calcium/calmodulin-dependent protein kinase kinase 2 (Homo sapiens, UniProt Q96RR4)
Chain of Calcium/calmodulin-dependent protein kinase kinase 2 (Q96RR4 whole entry): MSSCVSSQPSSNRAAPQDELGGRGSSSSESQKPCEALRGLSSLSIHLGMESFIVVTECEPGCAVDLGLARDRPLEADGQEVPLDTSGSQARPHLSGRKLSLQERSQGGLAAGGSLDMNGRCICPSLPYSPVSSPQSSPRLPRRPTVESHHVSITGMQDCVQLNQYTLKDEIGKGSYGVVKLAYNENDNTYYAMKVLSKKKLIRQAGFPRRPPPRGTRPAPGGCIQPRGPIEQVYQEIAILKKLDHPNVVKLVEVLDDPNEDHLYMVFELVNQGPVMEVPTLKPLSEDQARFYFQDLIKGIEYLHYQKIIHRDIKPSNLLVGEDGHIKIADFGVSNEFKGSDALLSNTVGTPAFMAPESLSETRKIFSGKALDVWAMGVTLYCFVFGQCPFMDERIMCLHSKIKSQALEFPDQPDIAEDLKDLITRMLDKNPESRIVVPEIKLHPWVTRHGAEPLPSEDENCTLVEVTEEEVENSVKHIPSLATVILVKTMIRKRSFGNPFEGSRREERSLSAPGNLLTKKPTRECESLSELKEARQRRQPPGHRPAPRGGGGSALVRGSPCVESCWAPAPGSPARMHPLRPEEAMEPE

[5] = target: T1, Serine/threonine-protein kinase A-Raf (Homo sapiens, UniProt P10398)
T1 sequence (P10398 whole entry): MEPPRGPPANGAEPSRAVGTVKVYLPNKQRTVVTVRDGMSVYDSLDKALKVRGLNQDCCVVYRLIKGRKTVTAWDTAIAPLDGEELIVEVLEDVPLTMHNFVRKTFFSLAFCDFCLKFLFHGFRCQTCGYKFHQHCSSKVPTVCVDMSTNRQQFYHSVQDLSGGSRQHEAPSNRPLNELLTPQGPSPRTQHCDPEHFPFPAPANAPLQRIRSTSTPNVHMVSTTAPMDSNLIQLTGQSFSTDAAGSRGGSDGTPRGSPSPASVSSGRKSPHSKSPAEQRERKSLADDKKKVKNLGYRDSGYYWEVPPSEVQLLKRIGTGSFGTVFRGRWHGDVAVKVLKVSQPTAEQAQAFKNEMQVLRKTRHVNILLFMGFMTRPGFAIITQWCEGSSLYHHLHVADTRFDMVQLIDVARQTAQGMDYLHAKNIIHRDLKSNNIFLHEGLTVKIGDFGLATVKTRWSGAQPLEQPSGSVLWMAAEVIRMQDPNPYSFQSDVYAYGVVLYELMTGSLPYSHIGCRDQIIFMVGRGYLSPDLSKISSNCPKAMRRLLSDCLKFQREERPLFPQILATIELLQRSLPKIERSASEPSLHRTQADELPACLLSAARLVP

[6] = target: Mitogen-activated protein kinase 7 (Homo sapiens, UniProt Q13164)
[7] = target: Dual specificity mitogen-activated protein kinase kinase 2 (Homo sapiens, UniProt P36507)
[8] = target: Fibroblast growth factor receptor 1 (Homo sapiens, UniProt P11362)
Chain of Fibroblast growth factor receptor 1 (P11362 whole entry): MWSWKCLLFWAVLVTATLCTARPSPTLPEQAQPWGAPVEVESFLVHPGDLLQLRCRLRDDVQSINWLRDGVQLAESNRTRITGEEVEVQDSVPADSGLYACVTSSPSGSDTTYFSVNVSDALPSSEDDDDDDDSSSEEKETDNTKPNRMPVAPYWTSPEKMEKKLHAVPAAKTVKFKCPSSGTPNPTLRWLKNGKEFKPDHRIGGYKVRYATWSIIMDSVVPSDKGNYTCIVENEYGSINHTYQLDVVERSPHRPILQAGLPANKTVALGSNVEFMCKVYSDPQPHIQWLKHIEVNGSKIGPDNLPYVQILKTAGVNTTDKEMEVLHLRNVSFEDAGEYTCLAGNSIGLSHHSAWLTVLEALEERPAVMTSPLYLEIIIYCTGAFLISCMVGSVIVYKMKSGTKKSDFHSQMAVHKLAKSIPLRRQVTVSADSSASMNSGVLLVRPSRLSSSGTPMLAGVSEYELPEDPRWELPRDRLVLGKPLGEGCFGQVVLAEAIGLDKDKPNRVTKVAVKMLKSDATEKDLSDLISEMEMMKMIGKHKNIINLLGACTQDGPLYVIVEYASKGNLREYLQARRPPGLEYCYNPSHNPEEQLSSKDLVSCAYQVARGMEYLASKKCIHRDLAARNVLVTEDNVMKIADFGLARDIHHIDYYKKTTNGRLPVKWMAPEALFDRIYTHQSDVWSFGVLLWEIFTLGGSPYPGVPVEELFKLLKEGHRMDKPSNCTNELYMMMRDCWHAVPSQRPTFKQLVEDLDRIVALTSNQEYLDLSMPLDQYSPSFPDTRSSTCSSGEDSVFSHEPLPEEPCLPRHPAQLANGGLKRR

[9] = target: Chromodomain-helicase-DNA-binding protein 4 (Homo sapiens, UniProt Q14839)
Chain of Chromodomain-helicase-DNA-binding protein 4 (Q14839 whole entry): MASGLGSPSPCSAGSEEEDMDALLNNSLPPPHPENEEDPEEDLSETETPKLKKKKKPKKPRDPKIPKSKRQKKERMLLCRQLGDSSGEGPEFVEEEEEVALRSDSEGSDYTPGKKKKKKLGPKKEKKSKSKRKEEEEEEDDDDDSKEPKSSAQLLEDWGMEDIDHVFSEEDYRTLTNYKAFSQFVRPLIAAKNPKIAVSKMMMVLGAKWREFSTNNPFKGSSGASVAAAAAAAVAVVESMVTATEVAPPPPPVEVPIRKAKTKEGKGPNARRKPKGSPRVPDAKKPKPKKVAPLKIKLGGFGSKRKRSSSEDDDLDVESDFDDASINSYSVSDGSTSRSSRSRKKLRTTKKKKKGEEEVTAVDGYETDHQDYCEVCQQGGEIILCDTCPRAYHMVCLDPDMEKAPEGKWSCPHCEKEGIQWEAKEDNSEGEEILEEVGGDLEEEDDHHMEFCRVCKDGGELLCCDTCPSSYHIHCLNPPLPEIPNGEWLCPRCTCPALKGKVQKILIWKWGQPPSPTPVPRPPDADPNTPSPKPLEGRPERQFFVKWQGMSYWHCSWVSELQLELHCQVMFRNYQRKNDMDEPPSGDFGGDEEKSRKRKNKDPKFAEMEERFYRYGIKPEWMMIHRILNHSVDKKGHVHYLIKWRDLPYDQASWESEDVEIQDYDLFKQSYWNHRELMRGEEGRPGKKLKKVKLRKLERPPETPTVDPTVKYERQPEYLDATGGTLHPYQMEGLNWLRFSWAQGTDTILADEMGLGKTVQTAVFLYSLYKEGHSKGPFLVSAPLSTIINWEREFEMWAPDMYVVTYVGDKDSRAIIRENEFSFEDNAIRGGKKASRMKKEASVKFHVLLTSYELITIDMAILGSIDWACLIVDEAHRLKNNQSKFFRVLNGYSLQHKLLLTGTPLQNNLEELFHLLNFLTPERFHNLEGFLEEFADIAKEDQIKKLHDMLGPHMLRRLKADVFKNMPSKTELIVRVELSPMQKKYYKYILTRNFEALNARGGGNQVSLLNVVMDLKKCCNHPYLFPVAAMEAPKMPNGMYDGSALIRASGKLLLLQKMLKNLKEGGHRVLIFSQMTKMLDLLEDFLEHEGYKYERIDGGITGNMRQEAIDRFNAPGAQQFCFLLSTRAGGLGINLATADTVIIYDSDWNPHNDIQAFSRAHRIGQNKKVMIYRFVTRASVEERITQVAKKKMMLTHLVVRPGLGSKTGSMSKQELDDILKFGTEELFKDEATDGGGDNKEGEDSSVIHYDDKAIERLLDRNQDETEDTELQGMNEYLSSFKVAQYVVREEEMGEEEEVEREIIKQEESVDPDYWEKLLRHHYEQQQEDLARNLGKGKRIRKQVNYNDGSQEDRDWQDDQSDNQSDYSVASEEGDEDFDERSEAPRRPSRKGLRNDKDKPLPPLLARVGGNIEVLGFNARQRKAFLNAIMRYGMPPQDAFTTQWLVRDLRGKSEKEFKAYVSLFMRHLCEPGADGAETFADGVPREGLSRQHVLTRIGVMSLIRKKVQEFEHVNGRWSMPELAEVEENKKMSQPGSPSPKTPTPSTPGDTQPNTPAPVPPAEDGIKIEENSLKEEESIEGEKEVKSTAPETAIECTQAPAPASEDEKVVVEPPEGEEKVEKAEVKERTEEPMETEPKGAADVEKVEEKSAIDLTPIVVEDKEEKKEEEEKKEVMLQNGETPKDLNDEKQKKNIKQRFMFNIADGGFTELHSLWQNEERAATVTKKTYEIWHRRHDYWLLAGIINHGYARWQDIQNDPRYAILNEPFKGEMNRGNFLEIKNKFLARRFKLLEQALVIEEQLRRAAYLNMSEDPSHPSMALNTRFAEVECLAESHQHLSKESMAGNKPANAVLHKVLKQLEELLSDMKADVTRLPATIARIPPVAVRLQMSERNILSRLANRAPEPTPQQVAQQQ

[10] = target: Mitogen-activated protein kinase 3 (Homo sapiens, UniProt P27361)
Chain of Mitogen-activated protein kinase 3 (P27361 whole entry): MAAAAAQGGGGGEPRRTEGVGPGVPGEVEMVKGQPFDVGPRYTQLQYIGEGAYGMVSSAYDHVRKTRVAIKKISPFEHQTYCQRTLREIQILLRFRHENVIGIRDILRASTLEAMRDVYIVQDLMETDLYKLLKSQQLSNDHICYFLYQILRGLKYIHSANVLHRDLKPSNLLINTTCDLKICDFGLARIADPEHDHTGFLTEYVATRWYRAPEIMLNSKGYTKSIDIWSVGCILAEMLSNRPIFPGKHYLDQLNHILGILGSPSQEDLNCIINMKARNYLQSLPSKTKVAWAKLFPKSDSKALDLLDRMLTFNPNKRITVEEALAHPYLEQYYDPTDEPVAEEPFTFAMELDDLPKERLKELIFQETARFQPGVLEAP

[11] = target: Mitogen-activated protein kinase kinase kinase 1 (Homo sapiens, UniProt Q13233)
[12] = target: T2, EKC/KEOPS complex subunit TP53RK (Homo sapiens, UniProt Q96S44)
T2 sequence (Q96S44 whole entry): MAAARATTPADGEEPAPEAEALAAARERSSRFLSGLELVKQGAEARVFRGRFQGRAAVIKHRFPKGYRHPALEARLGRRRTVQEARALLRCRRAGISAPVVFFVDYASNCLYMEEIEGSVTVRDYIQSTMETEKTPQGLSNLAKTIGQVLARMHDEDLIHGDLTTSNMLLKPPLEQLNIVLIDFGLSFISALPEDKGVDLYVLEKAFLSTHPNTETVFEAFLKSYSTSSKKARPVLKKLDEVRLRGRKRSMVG

Ephrin type-B receptor 3 = target: T3, Ephrin type-B receptor 3 (Homo sapiens, UniProt P54753)
T3 sequence (P54753 whole entry): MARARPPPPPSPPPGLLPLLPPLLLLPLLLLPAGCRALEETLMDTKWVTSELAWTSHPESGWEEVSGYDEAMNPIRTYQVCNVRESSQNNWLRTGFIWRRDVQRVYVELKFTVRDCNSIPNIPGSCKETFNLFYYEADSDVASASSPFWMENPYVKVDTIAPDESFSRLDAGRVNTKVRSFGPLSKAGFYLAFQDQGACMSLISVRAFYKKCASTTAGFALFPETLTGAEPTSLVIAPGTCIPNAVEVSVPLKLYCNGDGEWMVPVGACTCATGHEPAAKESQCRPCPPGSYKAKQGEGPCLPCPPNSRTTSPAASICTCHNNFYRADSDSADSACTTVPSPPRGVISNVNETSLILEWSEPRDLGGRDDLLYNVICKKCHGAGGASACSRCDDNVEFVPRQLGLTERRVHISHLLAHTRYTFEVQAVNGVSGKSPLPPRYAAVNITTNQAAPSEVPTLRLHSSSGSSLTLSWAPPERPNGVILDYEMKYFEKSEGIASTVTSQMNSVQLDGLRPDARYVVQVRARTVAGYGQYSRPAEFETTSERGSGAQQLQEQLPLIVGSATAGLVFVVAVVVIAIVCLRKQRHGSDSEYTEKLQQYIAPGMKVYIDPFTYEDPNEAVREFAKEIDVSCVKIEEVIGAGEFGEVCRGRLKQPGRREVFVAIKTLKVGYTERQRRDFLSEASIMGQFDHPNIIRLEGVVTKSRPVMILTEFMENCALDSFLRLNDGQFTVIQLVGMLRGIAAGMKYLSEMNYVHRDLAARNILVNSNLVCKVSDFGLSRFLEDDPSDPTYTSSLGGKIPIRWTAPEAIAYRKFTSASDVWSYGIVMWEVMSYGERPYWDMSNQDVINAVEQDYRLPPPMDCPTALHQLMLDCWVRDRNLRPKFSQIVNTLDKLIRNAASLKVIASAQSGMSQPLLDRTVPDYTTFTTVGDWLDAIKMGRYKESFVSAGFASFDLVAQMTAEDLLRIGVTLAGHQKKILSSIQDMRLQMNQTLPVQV

[13] = target: Bone morphogenetic protein receptor type-1B (Homo sapiens, UniProt O00238)
[14] = target: T4, Serine/threonine-protein kinase Nek2 (Homo sapiens, UniProt P51955)
T4 sequence (P51955 whole entry): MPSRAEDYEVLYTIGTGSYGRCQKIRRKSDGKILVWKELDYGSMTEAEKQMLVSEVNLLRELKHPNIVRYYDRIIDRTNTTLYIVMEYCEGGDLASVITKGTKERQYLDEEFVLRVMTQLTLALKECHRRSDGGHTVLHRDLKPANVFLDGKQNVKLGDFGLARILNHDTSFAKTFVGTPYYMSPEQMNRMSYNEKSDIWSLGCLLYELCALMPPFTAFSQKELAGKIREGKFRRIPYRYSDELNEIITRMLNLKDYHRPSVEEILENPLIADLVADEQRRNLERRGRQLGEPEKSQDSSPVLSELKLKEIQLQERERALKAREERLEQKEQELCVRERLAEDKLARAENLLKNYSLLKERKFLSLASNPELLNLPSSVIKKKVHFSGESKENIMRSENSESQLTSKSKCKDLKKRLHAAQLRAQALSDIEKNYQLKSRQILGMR
Also: in the data inactive means no Kd found up to 30 µM.

Chain of Macrophage-stimulating protein receptor (Q04912 25-304 limits assumed): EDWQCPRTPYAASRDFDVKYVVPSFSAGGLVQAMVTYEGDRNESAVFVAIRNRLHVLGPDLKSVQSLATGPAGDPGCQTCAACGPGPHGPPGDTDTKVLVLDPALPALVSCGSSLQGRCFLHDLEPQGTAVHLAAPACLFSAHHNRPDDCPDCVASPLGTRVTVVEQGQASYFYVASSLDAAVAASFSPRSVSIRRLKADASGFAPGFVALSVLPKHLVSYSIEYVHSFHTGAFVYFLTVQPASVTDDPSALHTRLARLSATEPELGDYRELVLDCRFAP
Chain of Macrophage-stimulating protein receptor (Q04912 310-1400 limits assumed): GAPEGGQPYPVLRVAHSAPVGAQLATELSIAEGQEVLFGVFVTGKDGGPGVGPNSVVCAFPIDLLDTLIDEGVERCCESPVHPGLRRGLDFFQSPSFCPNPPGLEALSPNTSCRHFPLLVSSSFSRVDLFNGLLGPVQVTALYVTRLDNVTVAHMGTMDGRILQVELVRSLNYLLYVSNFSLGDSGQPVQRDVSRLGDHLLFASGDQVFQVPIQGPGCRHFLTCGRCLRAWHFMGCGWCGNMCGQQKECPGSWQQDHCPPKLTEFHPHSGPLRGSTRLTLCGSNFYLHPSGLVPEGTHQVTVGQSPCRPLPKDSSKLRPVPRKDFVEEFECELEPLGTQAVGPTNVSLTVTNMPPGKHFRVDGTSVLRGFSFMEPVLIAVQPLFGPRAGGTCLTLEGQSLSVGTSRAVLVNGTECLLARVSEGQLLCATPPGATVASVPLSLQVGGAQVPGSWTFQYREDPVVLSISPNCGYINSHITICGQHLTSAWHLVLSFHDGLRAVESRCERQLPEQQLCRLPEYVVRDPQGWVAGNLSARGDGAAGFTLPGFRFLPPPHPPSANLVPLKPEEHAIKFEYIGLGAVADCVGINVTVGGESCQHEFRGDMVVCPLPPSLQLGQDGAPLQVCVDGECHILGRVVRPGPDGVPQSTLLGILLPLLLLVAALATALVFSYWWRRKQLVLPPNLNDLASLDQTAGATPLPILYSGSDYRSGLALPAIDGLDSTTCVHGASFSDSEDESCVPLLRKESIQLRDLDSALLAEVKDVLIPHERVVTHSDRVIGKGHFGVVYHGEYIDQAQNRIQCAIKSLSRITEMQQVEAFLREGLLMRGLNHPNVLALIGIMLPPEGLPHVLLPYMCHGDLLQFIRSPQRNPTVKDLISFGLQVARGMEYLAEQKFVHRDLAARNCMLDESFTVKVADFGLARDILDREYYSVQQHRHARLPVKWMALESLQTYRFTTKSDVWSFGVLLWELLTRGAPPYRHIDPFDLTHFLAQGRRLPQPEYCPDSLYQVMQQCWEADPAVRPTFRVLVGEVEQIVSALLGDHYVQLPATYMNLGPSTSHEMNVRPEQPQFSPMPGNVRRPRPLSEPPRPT

SMILES | Kd [1] | Kd [2] | Kd [3] | Kd [4] | Kd [5] | Kd [6] | Kd [7] | Kd [8] | Kd [9] | Kd [10] | Kd [11] | Kd [12] | Kd (Ephrin type-B receptor 3) | Kd [13] | Kd [14]
COc1cc(N2CCC(N3CCN(C)CC3)CC2)ccc1Nc1ncnc(Nc2ccccc2S(=O)(=O)C(C)C)n1 [ASP-3026] | > 30 µM (inactive) | > 30 µM (inactive) | > 30 µM (inactive) | 9.13 µM (active) | > 30 µM (inactive) | > 30 µM (inactive) | > 30 µM (inactive) | > 30 µM (inactive) | > 30 µM (inactive) | > 30 µM (inactive) | > 30 µM (inactive) | > 30 µM (inactive) | 5.5 µM (active) | 1.82 µM (active) | > 30 µM (inactive)
CCn1c(=O)c(-c2cc[nH]n2)cc2c(C)nc(N)nc21 [VOXTALISIB] | > 30 µM (inactive) | > 30 µM (inactive) | > 30 µM (inactive) | > 30 µM (inactive) | > 30 µM (inactive) | > 30 µM (inactive) | > 30 µM (inactive) | > 30 µM (inactive) | > 30 µM (inactive) | > 30 µM (inactive) | > 30 µM (inactive) | > 30 µM (inactive) | > 30 µM (inactive) | > 30 µM (inactive) | > 30 µM (inactive)
Cc1cc2c(F)c(Oc3ncnn4cc(OC[C@@H](C)OC(=O)[C@H](C)N)c(C)c34)ccc2[nH]1 [BRIVANIB ALANINATE] | > 30 µM (inactive) | > 30 µM (inactive) | > 30 µM (inactive) | > 30 µM (inactive) | > 30 µM (inactive) | > 30 µM (inactive) | > 30 µM (inactive) | 3.9 µM (active) | > 30 µM (inactive) | > 30 µM (inactive) | > 30 µM (inactive) | > 30 µM (inactive) | > 30 µM (inactive) | > 30 µM (inactive) | > 30 µM (inactive)
COc1cc(OC)c(/C=C/S(=O)(=O)Cc2ccc(OC)c(NCC(=O)O)c2)c(OC)c1 [RIGOSERTIB] | > 30 µM (inactive) | > 30 µM (inactive) | > 30 µM (inactive) | > 30 µM (inactive) | > 30 µM (inactive) | > 30 µM (inactive) | > 30 µM (inactive) | > 30 µM (inactive) | > 30 µM (inactive) | > 30 µM (inactive) | > 30 µM (inactive) | > 30 µM (inactive) | > 30 µM (inactive) | > 30 µM (inactive) | > 30 µM (inactive)
C=CC(=O)N1CCC(Oc2cc3c(Nc4ccc(Cl)c(Cl)c4F)ncnc3cc2OC)CC1 [POZIOTINIB] | > 30 µM (inactive) | > 30 µM (inactive) | > 30 µM (inactive) | > 30 µM (inactive) | > 30 µM (inactive) | > 30 µM (inactive) | > 30 µM (inactive) | > 30 µM (inactive) | > 30 µM (inactive) | > 30 µM (inactive) | > 30 µM (inactive) | > 30 µM (inactive) | > 30 µM (inactive) | > 30 µM (inactive) | > 30 µM (inactive)
Cc1ccc(-n2nc(C(C)(C)C)cc2NC(=O)NCc2cc(F)ccc2Oc2ccc3c(cnn3CCO)c2)cc1 [PEXMETINIB] | > 30 µM (inactive) | > 30 µM (inactive) | > 30 µM (inactive) | > 30 µM (inactive) | > 30 µM (inactive) | > 30 µM (inactive) | > 30 µM (inactive) | 2.67 µM (active) | > 30 µM (inactive) | > 30 µM (inactive) | > 30 µM (inactive) | > 30 µM (inactive) | 28.2 µM | > 30 µM (inactive) | > 30 µM (inactive)
Cn1cc(-c2ccc(F)c(C(F)(F)F)c2)nc1C1CCN(c2ncnc3[nH]ncc23)CC1 [LY-2584702] | > 30 µM (inactive) | > 30 µM (inactive) | > 30 µM (inactive) | > 30 µM (inactive) | > 30 µM (inactive) | > 30 µM (inactive) | > 30 µM (inactive) | > 30 µM (inactive) | > 30 µM (inactive) | > 30 µM (inactive) | > 30 µM (inactive) | > 30 µM (inactive) | > 30 µM (inactive) | > 30 µM (inactive) | > 30 µM (inactive)
CC[C@H](Nc1ncnc2[nH]cnc12)c1nc2cccc(F)c2c(=O)n1-c1ccccc1 [IDELALISIB] | > 30 µM (inactive) | > 30 µM (inactive) | > 30 µM (inactive) | > 30 µM (inactive) | > 30 µM (inactive) | > 30 µM (inactive) | > 30 µM (inactive) | > 30 µM (inactive) | > 30 µM (inactive) | > 30 µM (inactive) | > 30 µM (inactive) | > 30 µM (inactive) | > 30 µM (inactive) | > 30 µM (inactive) | > 30 µM (inactive)
O=C1NC(=O)/C(=C/c2ccc3nccc(-c4ccncc4)c3c2)S1 [GSK-1059615] | > 30 µM (inactive) | > 30 µM (inactive) | > 30 µM (inactive) | > 30 µM (inactive) | > 30 µM (inactive) | > 30 µM (inactive) | 5.25 µM (active) | > 30 µM (inactive) | > 30 µM (inactive) | > 30 µM (inactive) | > 30 µM (inactive) | 0.058 µM (active) | > 30 µM (inactive) | > 30 µM (inactive) | > 30 µM (inactive)
CN1CCC(CNc2ccc3ncc(-c4cccc(OC(F)(F)F)c4)n3n2)CC1 [SGI-1776] | > 30 µM (inactive) | > 30 µM (inactive) | > 30 µM (inactive) | > 30 µM (inactive) | > 30 µM (inactive) | > 30 µM (inactive) | > 30 µM (inactive) | > 30 µM (inactive) | > 30 µM (inactive) | > 30 µM (inactive) | > 30 µM (inactive) | > 30 µM (inactive) | > 30 µM (inactive) | > 30 µM (inactive) | > 30 µM (inactive)
